Reference: article PMC8041674 (European Journal of Nuclear Medicine and Molecular Imaging, 2020)
“And” between values parts separate entries of the source, which are not always exact repeats. Identical values can stand only once. Like-named read-outs stand apart in the source and are kept apart here.

What was measured:
[1] = Pharmacokinetic parameters of pridopidine in plasma; details: at steady state, 0 to 12 h after oral administration of pridopidine
[2] = tested on: plasma proteins; assay: [^18F] fluspidine binding to plasma proteins (ultracentrifugation); format: in vitro ADME; details: human, read-out: fraction of free tracer in plasma, not bound to plasma proteins
[3] = target: T1, sigma-1 receptor (S1R) (Homo sapiens, UniProt Q99720); assay: [^18F] fluspidine distribution volume (S1R availability), one-tissue compartment model; format: in vivo; parameters: from tissue; host or cells: living human brain of male healthy volunteers and Huntington disease patients (in vivo PET); VND, non-displaceable distribution volume: unit not given here
Source text: Application of the linear regression

[4] = target: T1, sigma-1 receptor (S1R); assay: Test-retest [^18F] fluspidine PET substudy; format: in vivo; parameters: from tissue; host or cells: living human brain of male healthy volunteers and Huntington disease patients (in vivo PET); details: two HVs, no pridopidine, VT of first and second PET scan
Method: The test-retest variability of [18F]Fluspidine binding (VT) was estimated for two HVs (age 27.5±3.5 yrs; body weight 67.0±11.3 kg) from PET data acquired at the same time point of the day within 11 and 14 weeks. No pridopidine was administered before imaging. The test-retest variability was calculated using linear regression of the first and second PET scan. Test-retest analysis was performed to calculate the uncertainty of the RO estimate. As estimated by the slope values of the linear regression, the variability was 0.887 (11.3%; subject #1) and 1.008 (0.8%; subject #2)(Supplementary Fig. S7; Supplementary

[5] = target: T1, sigma-1 receptor (S1R); details: for mean RO (S1R): 90 mg pridopidine; for RO (%), sigma-1 receptor occupancy: PET 2 h post dose
Source text: This PET study consists of three PET substudies: the [^18F] fluspidine substudy (HVs, n = 11, HD, n = 3), the [^18F] fallypride substudy (HVs, n = 4), and the test-retest [^18F] fluspidine substudy (HVs, n = 2). All subjects were assigned to only one PET substudy. Subjects in the [^18F] fluspidine or [^18F] fallypride substudies were investigated twice within 4 weeks at the same time point of the day.
The doses were not established a priori but were based on the receptor occupancy results from previous cohort subjects. […] Because we observed near to complete S1R occupancy with 90 mg, we reduced the next dose to approximately one fourth. […] The total distribution volume VT of [^18F] fluspidine in the brain was computed from the corresponding TACs and the metabolite-corrected arterial input function using a one-tissue compartment model (1TCM).
The receptor occupancy (RO) is defined as the drug treatment-induced reduction of the receptor density. The values of RO are between 0 (no receptor occupancy) and 1 (100% receptor occupancy). […] Here, it is assumed that the non-displaceable distribution volume VND and the receptor occupancy RO have the same value in all brain regions. Application of the linear regression
1 VTPET1−VTPET2=ROVTPET1−VND yielded VND and RO. From the Lassen plot follows
2 RO=1−VTPET2−VND/VTPET1−VND

[6] = target: T1, sigma-1 receptor (S1R); assay: in vivo; details: for Emax: standard error in brackets
Method: Two models with Hill coefficient n fixed to 1 or optimized as a third parameter were investigated and characterized by the Akaike information criterion (AIC). Nonlinear parameter estimation was performed with Mathematica12 (Wolfram Research).

[7] = tested on: sigma-1 receptor (S1R) compared with dopamine D3 receptor (D3R); details: in vitro and in vivo animal studies; cited from earlier work
[8] = tested on: sigma-1 receptor (S1R) compared with D2R; details: in vitro and in vivo animal studies; cited from earlier work
[9] = tested on: S1R; details: behaviorally effective doses, [^11C]SA4503 PET; cited from earlier work
[10] = tested on: D2/D3R; details: behaviorally effective doses, [^11C] Raclopride PET; cited from earlier work
[11] = tested on: Huntington disease patients; details: HD patients, 45 mg bid, week 52, PRIDE-HD; cited from earlier work
[12] = model plasma concentration Cavg2-4h (ng/ml), three-parameter Hill equation
[13] = model plasma concentration Cavg2-4h (ng/ml), two-parameter Hill equation (n = 1)
[14] = model weight adjusted dose (mg/kg), three-parameter Hill equation
[15] = model weight adjusted dose (mg/kg), two-parameter Hill equation (n = 1)

T1 sequence (Q99720 whole entry): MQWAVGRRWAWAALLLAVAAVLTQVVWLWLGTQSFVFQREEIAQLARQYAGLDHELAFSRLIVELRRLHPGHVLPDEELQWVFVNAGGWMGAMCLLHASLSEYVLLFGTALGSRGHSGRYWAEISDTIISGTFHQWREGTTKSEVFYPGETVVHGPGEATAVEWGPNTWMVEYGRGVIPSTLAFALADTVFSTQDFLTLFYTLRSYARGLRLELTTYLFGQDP

## CS(=O)(=O)c1cccc(C2CCNCC2)c1 [TV45065]
[1]
  concentration of metabolite in plasma relative to unchanged pridopidine concentration: less than 10%

## FCC[C@@H]1OC2(CCN(Cc3ccccc3)CC2)c2ccccc21 [[^18F] fluspidine, (S)-(-)-[^18F] Fluspidine]
[2]
  fraction unbound: 0.023 ± 0.007
[3]; HD (n = 3), cerebellum
  mean VT at baseline PET: 23.52 ± 12.66
[3]; HD (n = 3), corpus callosum
  mean VT at baseline PET: 8.89 ± 2.75
[3]; HD (n = 3), frontal cortex
  mean VT at baseline PET: 16.32 ± 6.76
[3]; HD (n = 3), medulla
  mean VT at baseline PET: 14.75 ± 7.28
[3]; HD (n = 3), midbrain
  mean VT at baseline PET: 16.46 ± 7.73
[3]; HD (n = 3), pons
  mean VT at baseline PET: 16.10 ± 8.74
[3]; HD (n = 3), striatum
  mean VT at baseline PET: 13.59 ± 5.98
[3]; HVs (n = 11), cerebellum, mean ± SD
  mean VT at baseline PET: 26.91 ± 4.49
[3]; HVs (n = 11), corpus callosum
  mean VT at baseline PET: 11.69 ± 2.40
[3]; HVs (n = 11), frontal cortex
  mean VT at baseline PET: 21.38 ± 3.37
[3]; HVs (n = 11), medulla
  mean VT at baseline PET: 16.63 ± 2.72
[3]; HVs (n = 11), midbrain
  mean VT at baseline PET: 19.31 ± 2.70
[3]; HVs (n = 11), pons
  mean VT at baseline PET: 19.13 ± 3.45
[3]; HVs (n = 11), striatum
  mean VT at baseline PET: 19.43 ± 2.95
[3]; Lassen plot, baseline vs post-pridopidine PET, patients with Huntington disease, individual subjects
  VND, non-displaceable distribution volume: 4.26 and 3.68 and 4.42
[4]
  test-retest variability, slope of the linear regression: 0.887 and 1.008

## CCCN1CCC(c2cccc(S(C)(=O)=O)c2)CC1 [pridopidine]
[5]; HD patients
  mean RO (S1R): 87.4%
[5]; healthy volunteer (n = 1), single dose 0.5 mg
  RO (%), sigma-1 receptor occupancy: 17.6%
[5]; healthy volunteer (n = 1), single dose 1 mg
  RO (%), sigma-1 receptor occupancy: 41.8%
[5]; healthy volunteer, individual subject, single dose 45 mg
  RO (%), sigma-1 receptor occupancy: 87.2%
[5]; healthy volunteers, 5 mg pridopidine
  RO (S1R), mean: 78.0 ± 1.7%
[5]; healthy volunteers
  mean RO (S1R): 91.2%
[5]; healthy volunteers, individual subjects, single dose 5 mg
  RO (%), sigma-1 receptor occupancy: 76.8% and 79.2%
[5]; healthy volunteers, individual subjects, single dose 22.5 mg
  RO (%), sigma-1 receptor occupancy: 84.1% and 89.2% and 86.7%
[5]; healthy volunteers, individual subjects, single oral dose 90 mg
  RO (%), sigma-1 receptor occupancy: 88.8% and 89.1% and 95.7%
[5]; patients with Huntington disease, individual subjects, single dose 90 mg
  RO (%), sigma-1 receptor occupancy: 80.4% and 93.2% and 88.5%
[6]; model dose (mg), three-parameter Hill equation, healthy volunteers
  Emax: 0.90 (0.01)
[6]; model dose (mg), two-parameter Hill equation (n = 1), healthy volunteers
  Emax: 0.93 (0.02)
[6]; [12]
  EC90: 0.018 µg/mL and 0.01757 µg/mL
  Emax: 0.89 (0.02)
[6]; [13]
  EC90: 0.028 µg/mL and 0.02852 µg/mL
  Emax: 0.91 (0.02)
[6]; [14]
  EC90: 0.084 mg/kg
  Emax: 0.89 (0.02)
[6]; [15]
  EC90: 0.135 mg/kg
  Emax: 0.93 (0.02)
[6]; three-parameter model, all situations (concentration, dose, adjusted weight dose)
  Hill coefficient: > 1
[7]
  fold higher affinity towards S1R compared with D3R: ~ 30 fold
[8]
  fold higher affinity towards S1R compared with D2R: ~ 100 fold
[9]
  S1R occupancy in rat brains: high S1R occupancy
[10]
  D2/D3R occupancy in rat brains: low D2/D3R occupancy
[11]
  decline from baseline in total functional capacity (TFC) compared with placebo: significantly less decline from baseline
